# Data from patent publication US12146004B2, “Polymyxin compounds and uses thereof” (priority 2014, dated 2024).
# Where two headings read alike, the source gives them in different places.
# How the values were obtained:
# Format in all cases: cell-based
# [1] = tested on: Acinetobacter baumannii
# Protocol: (§1) To evaluate the potency and spectrum of the compounds, susceptibility testing was performed against up to nine strains of each of the Gram negative pathogens, Escherichia coli, Pseudomonas aeruginosa, Klebsiella pneumoniae and Acinetobacter baumannii.
# (§2) The values in Table 2 are MIC (μg/mL) against strains of E. coli, K. pneumoniae, P. aeruginosa and A. baumanii, including strains which show elevated MICs to Polymyxin.
# (§3) The values in Table 2A are MIC (μg/mL).
# (§4) The in vitro activity of compounds 26 and C7 (FADDI-02) against resistant bacterial strains was compared. The resistant strains included including Escherichia coli, Pseudomonas aeruginosa, Klebsiella pneumoniae and Acinetobacter baumannii strains. The data is provided in Table 2C, where the strains are identified. The values in Table 2 are MIC (μg/mL).
# [2] = tested on: Klebsiella pneumoniae
# Protocol: as §1, §2, §3, §4
# [3] = tested on: Pseudomonas aeruginosa
# Protocol: as §1, §2, §3, §4
# [4] = tested on: Escherichia coli
# Protocol: as §1, §2, §3, §4
MIC A. baumanii ATCC BAA-747 [1],MIC A. baumanii NCTC 13424 [1],MIC K. pneumoniae 065 [2],MIC K. pneumoniae ATCC 13882 [2],MIC P. aeruginosa ATCC 27853 [3],MIC P. aeruginosa CCUG 59347 [3],MIC E. coli 058 [4],MIC E. coli ATCC 25922 [4],MIC E. coli NCTC 9001 [4],SMILES,other results
0.125 µg/mL,0.125 µg/mL,8 µg/mL,0.25 µg/mL,0.25 µg/mL,1 µg/mL,4 µg/mL,0.06 µg/mL,–,"CCC(CC)CC(CCN)C(=O)N[C@H](C(=O)N[C@@H](CCN)C(=O)N[C@H]1CCNC(=O)[C@H]([C@@H](C)O)NC(=O)[C@H](CCN)NC(=O)[C@H](CCN)NC(=O)[C@H](CC(C)C)NC(=O)[C@@H](CC2CCCCC2)NC(=O)[C@H](CCN)NC1=O)[C@@H](C)O (single isomer, unassigned; isomer 2) [Example 92, 2-(2-aminoethyl)-4-ethylhexanoyl polymyxin [D-cyclohexylalanine]-6 nonapeptide. Isomer 2]",–
0.5 µg/mL,0.5 µg/mL,4 µg/mL,0.25 µg/mL,0.25 µg/mL,0.5 µg/mL,4 µg/mL,0.25 µg/mL,0.125 µg/mL,"CC(C)C[C@@H]1NC(=O)[C@@H](CC2CCCCC2)NC(=O)[C@H](CCN)NC(=O)[C@@H](NC(=O)[C@H](CCN)NC(=O)[C@@H](NC(=O)C(CN)Cc2ccccc2)C(C)O)CCNC(=O)[C@H]([C@@H](C)O)NC(=O)[C@H](CCN)NC(=O)[C@H](CCN)NC1=O (single isomer, unassigned; isomer 2) [Example 53, 3-amino-2-benzylpropanoyl polymyxin [D-cyclohexylalanine]-6 nonapeptide. Isomer 2]",MIC A. baumanii 053 [1]: 64 µg/mL; MIC A. baumanii 056 [1]: 64 µg/mL; MIC K. pneumoniae 063 [2]: 64 µg/mL; MIC P. aeruginosa 068 [3]: 8 µg/mL; MIC P. aeruginosa 070 [3]: 8 µg/mL; MIC E. coli 061 [4]: 32 µg/mL
0.125 µg/mL,0.25 µg/mL,0.5 µg/mL,0.5 µg/mL,0.5 µg/mL,0.5 µg/mL,4 µg/mL,0.25 µg/mL,0.125 µg/mL,"CCC(C)CC(CCN)C(=O)N[C@H](C(=O)N[C@@H](CN)C(=O)N[C@H]1CCNC(=O)[C@H]([C@@H](C)O)NC(=O)[C@H](CCN)NC(=O)[C@H](CCN)NC(=O)[C@H](CC(C)C)NC(=O)[C@@H](CC2CCCCC2)NC(=O)[C@H](CCN)NC1=O)C(C)O (single isomer, unassigned; isomer 2) [Example 47, 2-(2-aminoethyl)-4-methylhexanoyl L-Thr-L-Dap-polymyxin [D-cyclohexylalanine]-6 heptapeptide. Isomer 2]",–
–,–,–,–,–,–,–,–,–,"CC(C)C[C@@H]1NC(=O)[C@@H](CC2CCCCC2)NC(=O)[C@H](CCN)NC(=O)[C@@H](NC(=O)[C@H](CCN)NC(=O)[C@@H](NC(=O)CC(CN)C2CCCCC2)[C@@H](C)O)CCNC(=O)[C@H]([C@@H](C)O)NC(=O)[C@H](CCN)NC(=O)[C@H](CCN)NC1=O (single isomer, unassigned; isomer 1) [Example 86, 4-amino-3-cyclohexylbutanoyl polymyxin [D-cyclohexylalanine-6]nonapeptide. Isomer 1]",MIC A. baumanii 053 ([1]; strain 053): >64 µg/mL; MIC A. baumanii 056 ([1]; strain 056): 64 µg/mL; MIC A. baumanii ATCC BAA-747 ([1]; strain ATCC BAA-747): 0.125 µg/mL; MIC A. baumanii NCTC 13424 ([1]; strain NCTC 13424): 0.125 µg/mL; MIC K. pneumoniae 063 ([2]; strain 063): >64 µg/mL; MIC K. pneumoniae 065 ([2]; strain 065): 8 µg/mL; MIC K. pneumoniae ATCC 13882 ([2]; strain ATCC 13882): 0.5 µg/mL; MIC P. aeruginosa 070 ([3]; strain 070): 8 µg/mL; MIC P. aeruginosa ATCC 27853 ([3]; strain ATCC 27853): 0.25 µg/mL; MIC P. aeruginosa CCUG 59347 ([3]; strain CCUG 59347): 0.5 µg/mL; MIC E. coli 058 ([4]; strain 058): 8 µg/mL; MIC E. coli 061 ([4]; strain 061): 32 µg/mL; MIC E. coli ATCC 25922 ([4]; strain ATCC 25922): 0.125 µg/mL; MIC E. coli NCTC 9001 ([4]; strain NCTC 9001): 0.06 µg/mL
